Key:
BV2 cells = experiment: BV2 cell proliferation assay (CCK-8); format: cell-based; details: Mus musculus, BV-2, 48 h treatment, CCK-8, top concentration 33.3 μM, mean pIC50 of multiple test results, read-out: BV2 Profileration pIC50 (converted)
Excerpt: (§1) The assay measures the ability of a compound to inhibit cell proliferation using Cell Counting Kit-8 (CCK-8), which allows sensitive colorimetric assays for the determination of cell viability in cell proliferation and cytotoxicity assays. The highly water-soluble tetrazolium salt, WST-8, is reduced by dehydrogenase activities in cells to give a yellow-color formazan dye, which is soluble in the tissue culture media. The amount of the formazan dye, generated by the activities of dehydrogenases in cells, is directly proportional to the number of living cells.
(§2) The assay was performed based on the instruction of the manufacturer (Dojindo Molecular Technologies Inc., Rockville, MD, USA). To start the assay, BV2 cells were seeded at a density of […] into 96-well plates and treated with test compounds, which were used at a top final assay concentration of 33.3 μM, diluted in assay medium with 1:3 dilutions to produce 10 point concentration responses, for 48 h. After incubation, the CCK-8 solution (10 μl) was added to each well of the plate and the plates were incubated in incubator at 37° C. for 3 h. Absorbance was recorded three times independently using a microplate reader (Bio-Rad Laboratories, Richmond, CA, USA) at 450 nm.
Selected examples were tested in the BV2 cell proliferation. The data mentioned below represents a mean pIC50 value of multiple test results. It is understood that the data illustrated below may have reasonable variation depending on the specific conditions and procedures used by the person conducting the testing.

U251 cell = U251 cell proliferation assay (CCK-8); format: cell-based; details: Homo sapiens, U-251; U251 cells; read-out: U251 Profileration pIC50 (converted)
Excerpt: [The source words this procedure for another cell line and reports this cell line under the same test.] as §1, §2

MIF = MIF (Homo sapiens (Human), UniProt P14174); experiment: MIF tautomerase assay using pHPP as substrate; format: biochemical; details: cell-free, pHPP substrate 1.5 mM, MIF 3 nM; mean pIC50 of multiple test results
Sequence of MIF (P14174 2-115): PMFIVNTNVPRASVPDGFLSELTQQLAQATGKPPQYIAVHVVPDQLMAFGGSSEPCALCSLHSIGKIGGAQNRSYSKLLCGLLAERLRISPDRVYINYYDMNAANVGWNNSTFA
Description: Tautomerase Assay Using pHPP as substrate
This assay measured MIF's tautomerase activity in a cell-free system and was based on the determination of initial rates of the MIF-catalyzed conversion of the ketonic into the enolic tautomer of pHPP. This was achieved by spectrophotometric quantification of the complex between borate and the product of the reaction (enolic pHPP). The substrate was prepared by conversion of the enolic pHPP into its ketonic form. To achieve this, 0.5 M pHPP in methanol was diluted 10-fold with 50 mM sodium acetate buffer at pH 6.0, and then the suspension was shaken for 24 h at room temperature in darkness, and finally stored at 4° C. for not more than 1 week, with 5 min sonication being recommended before use.
Assays were performed in small-volume clear-bottom black 96 or 384-well polystyrene plates (Greiner Bio-One). First, 2 μL of the enzyme solution containing 6 nM of MIF in DPBS, 0.025% w/v BSA, and 300 μM CHAPS was dispensed onto sample and negative control wells using Multidrop Combi with metallic tip cassettes (Thermo Fisher Scientific) previously treated with Sigmacote. Then, 2 μL of the same buffer without MIF was dispensed onto positive control wells. The reaction was started by addition of the following to all wells: 2 μL of substrate solution containing 3 mM ketonic pHPP in 200 mM boric acid, 25 mM sodium phosphate, 0.025% w/v BSA, and 300 μM CHAPS at pH 6.0. In order to remove bubbles, the plate was centrifuged in an Allegra 25R centrifuge (Beckman Coulter, Inc., Brea, CA) at 1000 rpm for 2 min at room temperature. Then, the plate was read in an EnVision. Final concentrations of enzyme and substrate were 3 nM and 1.5 mM, respectively. Initial rates were calculated for each well as the slope of the absorbance progress curve.
The data mentioned below represents a mean pIC50 value of multiple test results. It is understood that the data illustrated below may have reasonable variation depending on the specific conditions and procedures used by the person conducting the testing.

| SMILES | IC50 (BV2 cells) [µM] | IC50 (U251 cell) [µM] | Tautomerase Inhibition pIC50 (MIF) |
| --- | --- | --- | --- |
| O=C1c2ccc(Br)cc2CCN1Cc1nnc(-c2cccs2)o1 [Compound 73, 6-bromo-2-((5-(thiophen-2-yl)-1,3,4-oxadiazol-2-yl)methyl)-3,4-dihydroisoquinolin-1(2H)-one] | 23.4 | > 1000 | <5 |
| O=C1c2ccc(N3CCOCC3)cc2CCN1Cc1nnc(-c2cccs2)o1 [Compound 74, 6-morpholino-2-((5-(thiophen-2-yl)-1,3,4-oxadiazol-2-yl)methyl)-3,4-dihydroisoquinolin-1(2H)-one] | 25.1 | > 1000 | <5 |
| COc1cc(N2CCOCC2)ccc1NC(=O)c1nnc(-c2cccs2)o1 [Compound 75, N-(2-methoxy-4-morpholinophenyl)-5-(thiophen-2-yl)-1,3,4-oxadiazole-2-carboxamide] | 28.2 | > 1000 | <5 |
| COc1cc(NC2CCN(C)C2)ccc1C(=O)NCc1nnc(-c2cccs2)o1 (stereo not drawn) [Compound 76, 2-methoxy-4-((1-methylpyrrolidin-3-yl)amino)-N-((5-(thiophen-2-yl)-1,3,4-oxadiazol-2-yl)methyl)benzamide] | > 1000 | > 1000 | 1.77 |
| CNCCNc1ccc(C(=O)NCc2nnc(-c3cccs3)o2)c(OC)c1 [Compound 77, 2-methoxy-4-((2-(methylamino)ethyl)amino)-N-((5-(thiophen-2-yl)-1,3,4-oxadiazol-2-yl)methyl)benzamide] | > 1000 | > 1000 | 5.66 |
| COc1cc(OC2CCN(C)C2)ccc1C(=O)NCc1nnc(-c2cccs2)o1 (stereo not drawn) [Compound 82, 2-methoxy-4-((1-methylpyrrolidin-3-yl)oxy)-N-((5-(thiophen-2-yl)-1,3,4-oxadiazol-2-yl)methyl)benzamide] | > 1000 | > 1000 | 5.53 |
| COc1cc(CC(C)(C)O)ccc1C(=O)NCc1nnc(-c2cccs2)o1 [Compound 84, 4-(2-hydroxy-2-methylpropyl)-2-methoxy-N-((5-(thiophen-2-yl)-1,3,4-oxadiazol-2-yl)methyl)benzamide] | 41.7 | > 1000 | 6.04 |
| COc1cc(CN2CCCCC2)ccc1C(=O)NCc1nnc(-c2cccs2)o1 [Compound 85, 2-methoxy-4-(piperidin-1-ylmethyl)-N-((5-(thiophen-2-yl)-1,3,4-oxadiazol-2-yl)methyl)benzamide] | > 1000 | > 1000 | 5.20 |
| COc1cc(CN2CCOCC2)ccc1C(=O)NCc1nnc(-c2cccs2)o1 [Compound 86, 2-methoxy-4-(morpholinomethyl)-N-((5-(thiophen-2-yl)-1,3,4-oxadiazol-2-yl)methyl)benzamide] | > 1000 | > 1000 | 5.47 |

From patent publication US11884682B2, “Compounds and their uses as MIF inhibitors” (NANJING IMMUNOPHAGE BIOTECH CO., LTD., priority 2020, dated 2024)
